Assay results: PMC7066245 (Scientific Reports, 2020)
Read-outs that look alike come from different tables or passages of the source.

Columns and labels:
[1] = tested on: intracellular calcium (Ca2+) in HL60 cells; assay: intracellular calcium measurement (Fluo-4-NW), HL60; type: cell-based, human; settings: HL60, IC50 dose
Description: (§1) Intracellular calcium level was determined using the fluorescent probe Fluo-4NW according to the protocol described in our previous article. After entering the cell, Fluo-4NW is converted by cytosolic hydrolases to the active form, having the possibility of binding of calcium ions. As a result of joining of calcium ions, the probe emits fluorescence (λem = 538 nm) after excitation with light of wavelength 485 nm.
(§2) Cells were cultured and treated with investigated compounds on Petri dishes. Next, the cells were plated in 96-well black fluorimetric plates (2 × 10^4 cells/well). The growth medium was removed and the cells were washed with PBS in order to eliminate sources of baseline fluorescence. Finally a dye loading solution (Fluo-4-NW dye, 4-[(Dipropylamino)sulfonyl] benzoic acid (Probenecid) - used to inhibit extrusion of the indicator out of the cell by organic anion transporters, Hanks’ balanced salt solution (HBSS), 20 mM N-(2- hydroxyethyl)piperazine-N’-(2-ethanesulfonic acid) buffer solution (HEPES)) was added in a volume of 100 μl per well and incubated for 30 min in the total darkness at 37 °C, and then for next 30 min. at room temperature. The measurement was done on Fluoroskan Ascent FL microplate reader (Labsystems, Sweden) using 494 nm excitation and 516 nm emission wavelengths.

RPMI8226 cells [2] = type: cell-based, human
[3] = tested on: normal peripheral blood-derived mononuclear cells (PBMC); assay: cells; type: cell-based; settings: read-out: IC50 PBMC
[4] = tested on: THP1 acute monocytic leukemia cells; assay: cells; type: cell-based, human; settings: read-out: IC50 THP1
THP1 cells [5] = type: cell-based, human; set-up: concentration or dose not given beside the values
[6] = tested on: HL60 promyelocytic leukemia cells; assay: cells; type: cell-based, human; settings: read-out: IC50 HL60
[7] = tested on: caspase-3/-7 in THP1 cells; type: cell-based, human
[8] = tested on: caspase-3/-7 in RPMI8226 cells; type: cell-based, human
[9] = tested on: RPMI8226 myeloma cancer cells; assay: cells; type: cell-based, human; settings: read-out: IC50 RPMI8226
[10] = tested on: caspase-3/-7 in HL60 cells; type: cell-based, human
[11] = tested on: intracellular calcium (Ca2+) in THP1 cells; assay: intracellular calcium measurement (Fluo-4-NW), THP1; type: cell-based, human; settings: THP1, IC50 dose, 4 h
Description: as §1, §2

caspase-9 in THP1 cells = type: cell-based, human
RPMI8226 cells [12] = assay: annexin V/propidium iodide apoptosis assay, RPMI8226; type: cell-based, human; settings: RPMI8226, 48 h, 3 µM, annexin V/PI
Text: (§3) Double staining of cells with Annexin V and propidium iodide (PI) was used according to the protocol described in our previous article. This method is a useful tool for distinguishing viable cells (unstained with either fluorochrome) from early apoptotic cells (stained only with Annexin V), late apoptotic (stained with Annexin V and propidium iodide) and necrotic (dead) cells (stained only with PI).
(§4) Briefly, 5 × 10^5 control and drug treated cells were washed with cold PBS and resuspended in 500 μl binding buffer (delivered from producer) that contained 5 μl of Annexin V fluorescein isothiocyanate (FITC), 5 μl of PI and stained for 15 minutes in room temperature. Finally, at least 10^4 cells were analyzed for FITC and PI fluorescence (Ex ~488 nm; Em ~530 nm) using a flow cytometer (LSR II, Becton Dickinson). The cells stained with the annexin V/propidium iodide mixture were then visualized using fluorescence microscopy (Olympus IX70, Japan), magnification × 200.

HL60 cells = assay: annexin V/propidium iodide apoptosis assay, HL60; type: cell-based, human; settings: HL60, 48 h, 0.7 μM, annexin V/PI
Text: as §3, §4

THP1 cells [13] = assay: annexin V/propidium iodide apoptosis assay, THP1; type: cell-based, human; settings: THP1, 48 h, 0.3 μM, annexin V/PI
Text: as §3, §4

| Structure (SMILES) | DNA damage (tail DNA), RPMI8226 (RPMI8226 cells [2]) | DNA damage (tail DNA), THP1 (THP1 cells [5]) | Caspase 3 activity THP1, 24 h [7] [%] | IC50 [9] [µM] | Caspase 3 activity HL-60, 24 h [10] [%] | IC50 ([4]; Homo sapiens, THP-1, 48 h) [nM] | IC50 ([6]; Homo sapiens, HL-60, 48 h) [nM] | IC50 ([9]; Homo sapiens, RPMI-8226, 48 h) [µM] | late apoptotic cells, THP1 (THP1 cells [13]) | also measured |
| --- | --- | --- | --- | --- | --- | --- | --- | --- | --- | --- |
| CCOC(=O)C(N)Cc1ccc(N(CCCl)CCCl)cc1 (centres unmarked) [EE-MEL] | ~ 38% | ~ 15% | 788.85 ± 83.40 | 1.17 | 1225.64 ± 155.22 |  |  |  |  | fold increase of intracellular calcium, HL60, 24 h [1]: approx. 2 fold; IC50 [3]: 2.2 ± 0.25 µM; IC50 [4]: 350 nM; IC50 [6]: 700 nM; Caspase 3 activity RPMI8226, 24 h [8]: 656.19 ± 221.7% |
| O=C(O)C(Cc1ccc(N(CCCl)CCCl)cc1)N=CN1CCOCC1 (centres unmarked) [MOR-MEL] |  |  |  |  |  | > 30000 | > 30000 | > 30 |  |  |
| CCCN(C=NC(Cc1ccc(N(CCCl)CCCl)cc1)C(=O)O)CCC (centres unmarked) [DIPR-MEL] |  |  |  |  |  | > 30000 | > 30000 | > 30 |  |  |
| COC(=O)C(Cc1ccc(N(CCCl)CCCl)cc1)N=CN1CCOCC1 (centres unmarked) [EM-MOR-MEL] |  | ~ 13% |  |  |  | 70 ± 4 | 490 ± 98 | 3.6 |  | IC50 ([3]; PBMC, 48 h): 6.41 ± 0.85 µM |
| CCOC(=O)C(Cc1ccc(N(CCCl)CCCl)cc1)N=CN1CCOCC1 (centres unmarked) [EE-MOR-MEL] |  | ~ 13% | 981.93 ± 51.79 |  | 1127.68 ± 39.24 | 40 | 320 | 3.13 |  | fold increase of intracellular calcium ions, THP1 [11]: approx. 2.8 fold |
| N[C@@H](Cc1ccc(N(CCCl)CCCl)cc1)C(=O)O [MEL, melphalan, reference compound] |  |  | 429.08 ± 48.10 |  | 736.92 ± 105.48 | 6260 | 3780 | 8.9 | ~17% | Caspase 9 activity THP1, 24 h (caspase-9 in THP1 cells): 316.5 ± 17.31%; Caspase 3 activity RPMI8226, 24 h [8]: 463.75 ± 64.5%; level of intracellular calcium, THP1 ([11]; control = 100%): 131.27 ± 10.08%; late apoptotic cells, RPMI8226 (RPMI8226 cells [12]): approximately 25%; late apoptotic cells, HL60 (HL60 cells): ~35% |
| CCCN(C=NC(Cc1ccc(N(CCCl)CCCl)cc1)C(=O)OCC)CCC (centres unmarked) [EE-DIPR-MEL] | comparable to that of melphalan | ~ 7% |  | 5.94 |  | 690 | 1050 | 4.85 ± 0.195 | comparable to that of the unmodified drug |  |
| CCCN(C=NC(Cc1ccc(N(CCCl)CCCl)cc1)C(=O)OC)CCC (centres unmarked) [EM-DIPR-MEL] | comparable to that of melphalan | ~ 7% |  | 4.85 |  | 410 | 850 | 5.94 ± 0.65 | comparable to that of the unmodified drug |  |
